Laboratory results as given in PMC8553373 (The Journal of Biological Chemistry, 2021).

Target: Nsp9COV19(C73S) as substrate of Nsp12COV19 NiRAN domain (Severe acute respiratory syndrome coronavirus 2, UniProt P0DTD1, C4213S)
Type: biochemical, SARS-CoV-2

## C=C1C(=O)[C@]23[C@H](O)[C@H]1CC[C@H]2[C@@]12CO[C@]3(O)[C@@H](O)[C@@H]1C(C)(C)CC[C@@H]2O [Compound 1, Oridonin]
  level of inhibition with mutant Nsp9 compared with wild-type: approximately threefold lower
